The text below walks through data of patent US5675031A, “4-hydroxy-2-cyclopentenone derivatives and anticancer agent and bone formation accelerator containing the same” (Teijin Limited, priority 1992, dated 1997).

For assay [1], the system named is L1210 tumor cells. The experiment in a line: anticancer activity (growth of L1210 tumor cells, trypan blue staining of surviving cells). Format: cell-based. To be noted: Mus musculus, 48 h, 2.5×10^4 cells/ml, grown for 2 days. On the procedure: Measurement of anticancer activity
Tumor cells were grown in an RPMI 1640 medium containing of 10% fetal calf serum.
The compound was dissolved in 99.5% ethanol, adjusted before use so that the final concentration of ethanol was 0.1% or less, and added to the medium.
The control was 0.1% ethanol, and L1210 tumor cells were inoculated in the medium in a concentration of 2.5×10^4 cells/ml and grown for 2 days. The number of surviving cells were measured by trypan blue staining.

Assay [2] relates to Human osteoblasts (KK-3, 18PDL). The experiment in a line: bone formation activity (Ca, P and alkaline phosphatase in human osteoblasts). Format: cell-based. To be noted: 14 days. The procedure: Measurement of bone formation activity
Human osteoblasts (KK-3, 18PDL) were cultured in an α-MEM containing 10% fetal calf serum. After the growth become stationary, the compound was added in a given concentration in the presence of 2 mM α-glycerophosphate and treated for 14 days. The cell phase was washed with physiological saline, and the alkaline phosphatase activity (ALP) was measured through the absorption of OD415. Then, calcium (Ca) and phosphorus (P) were extracted with a 2N hydrochloric acid and quantitatively determined.

Setting [3] is: Table 6, 1.0 × 10^-6, control 0.550 ± 0.040.
Setting [4] is: Table 6, 1.0 × 10^-6, control 11.00 ± 1.73.
[5] abbreviates: Table 6, 2.5 × 10^-7 M, control 0.550 ± 0.040.
[6] abbreviates: Table 6, 2.5 × 10^-7 M, control 11.00 ± 1.73.
Where [7] appears, read: Table 6, 2.5 × 10^-7 M, control 20.00 ± 1.73.
Setting [8] is: Table 9, 1.0 × 10^-6 M, control 1.15 ± 0.19.
[9] abbreviates: Table 9, 1.0 × 10^-6 M, control 2.17 ± 2.56.
The mark [10] stands for this setting: Table 9, 1.0 × 10^-6 M, control 3.83 ± 1.72.
Where [11] appears, read: Table 9, 3.3 × 10^-6, control 1.15 ± 0.19.
The mark [12] stands for this setting: Table 9, 3.3 × 10^-6, control 2.17 ± 2.56.

Converted amounts (≈) assume the structure as drawn.

As for `O=C1C=CC(O)(CCCCOc2ccccc2)/C1=C\c1ccncc1` (stereo not shown), the half-maximal inhibitory concentration (IC50) in assay [1] is 0.021 µg/mL (≈ 0.0626 µM).

On to `CN(C)c1ccc(C=C2C(=O)C=CC2(O)CCCCOc2ccccc2)cc1` (stereo not shown), for which half-maximal inhibition in assay [1] (IC50) was put at 0.378 µg/mL (≈ 1 µM).

The compound `COC(=O)c1ccc(/C=C2/C(=O)C=CC2(O)CCCCOc2ccccc2)cc1` (stereo not shown) [drawing 207] registered an IC50 in assay [1] of 0.014 µg/mL (≈ 0.0357 µM). This IC50 is about 27-fold lower than that of the compound before.

Take `COC(=O)c1ccc(/C=C2/C(=O)C=C(C)C2(O)CCCCOc2ccccc2)cc1` (stereo not shown) [drawing 208]: the IC50 in assay [1] was 10.8 µg/mL (≈ 26.5 µM).

In assay [1], `COC(=O)c1ccc(/C=C2/C(=O)C(Cl)=CC2(O)CCCCOc2ccccc2)cc1` (stereo not shown) [drawing 209] came in with an IC50 of 0.004 µg/mL (≈ 0.00937 µM).

Consider `CN(C)c1ccc(/C=C2/C(=O)C(Cl)=CC2(O)CCCCOc2ccccc2)cc1` (stereo not shown) [drawing 212], for which, in assay [1], half-maximal inhibition (IC50) required 0.062 µg/mL (≈ 0.151 µM).

`COC(=O)c1ccc(/C=C2/C(=O)C=C[C@@]2(O)CCCCOc2ccccc2)cc1` [drawing 213] registered an IC50 in assay [1] of 0.01 µg/mL (≈ 0.0255 µM).

Turning to `COC(=O)c1ccc(/C=C2/C(=O)C=C[C@]2(O)CCCCOc2ccccc2)cc1` [drawing 214], the IC50 in assay [1] stood at 0.026 µg/mL (≈ 0.0663 µM).

As to `COC(=O)c1ccc(/C=C2/C(=O)C=CC2(O)CCCCOc2ccccc2)cc1` (stereo not shown) [drawing 215], the ALP in assay [2] (setting [3]) is 0.488 OD415 /dish; in assay [2] (setting [5]) it was 0.572 ± 0.028 OD415 /dish. In addition, the Ca was 47.00 ± 1.00 μg/dish in assay [2] (setting [4]) and 22.67 ± 3.51 μg/dish in assay [2] (setting [6]). The compound also came in with a P in assay [2] (setting [7]) of 28.33 ± 2.52 μg/dish.

As to `COC(=O)c1ccc(/C=C2/C(=O)C(Cl)=CC2(O)CCCCOc2ccccc2)cc1` (stereo not shown) [drawing 216], the results for the ALP in assay [2] (setting [3]) and in assay [2] (setting [5]) were 0.0 OD415 /dish and 0.484 ± 0.078 OD415 /dish, respectively. The Ca is 124.50 ± 2.12 μg/dish in assay [2] (setting [4]) and 37.00 ± 1.00 μg/dish in assay [2] (setting [6]). The compound further yielded a P in assay [2] (setting [7]) of 36.00 ± 1.00 μg/dish.

Turning to `CN(C)c1ccc(/C=C2/C(=O)C(Cl)=CC2(O)CCCCOc2ccccc2)cc1` (stereo not shown) [drawing 217], the P in assay [2] (Table 7, 10^-6 M, control 0.17 ± 0.29) came out at 1.72 ± 0.05 μg/dish; in assay [2] (Table 7, 10^-7 M, control 0.17 ± 0.29) it was 0.33 ± 0.29 μg/dish. The Ca stood at 23.50 ± 3.77 μg/dish in assay [2] (Table 7, 10^-6 M, control 0.33 ± 0.29) and 0.0 ± 0 μg/dish in assay [2] (Table 7, 10^-7 M, control 0.33 ± 0.29). Moreover, the ALP in assay [2] (Table 7, 10^-6 M, control 0.826 ± 0.006) stood at 0.503 OD415 /dish; in assay [2] (Table 7, 10^-7 M, control 0.826 ± 0.006), 0.796 ± 0.047 OD415 /dish.

For the compound `COC(=O)c1ccc(/C=C2/C(=O)C=C(C)C2(O)CCCCOc2ccccc2)cc1` (stereo not shown) [drawing 218], the Ca is recorded as 8.133 ± 3.06 μg/dish in assay [2] (Table 8, 10^-4 M, control 0.33 ± 0.58) and 1.00 ± 0.0 μg/dish in assay [2] (Table 8, 10^-5 M, control 0.33 ± 0.58). Besides, the ALP in assay [2] (Table 8, 10^-4 M, control 1.684 ± 0.068) was found to be 0.697 OD415 /dish; in assay [2] (Table 8, 10^-5 M, control 1.684 ± 0.068) it was 1.538 ± 0.028 OD415 /dish. Further, the P is 50.33 ± 1.53 μg/dish in assay [2] (Table 8, 10^-4 M, control 7.67 ± 0.58) and 8.33 ± 1.53 μg/dish in assay [2] (Table 8, 10^-5 M, control 7.67 ± 0.58).

As to `COC(=O)c1ccc(/C=C2/C(=O)C=C[C@]2(O)CCCCOc2ccccc2)cc1` [drawing 219], the ALP came out at 0.74 ± 0.06 OD415 /dish in assay [2] (setting [8]) and 1.79 OD415 /dish in assay [2] (setting [11]). For the same compound, the figures for the Ca in assay [2] (setting [9]) and in assay [2] (setting [12]) were 18.00 ± 8.00 μg/dish and 318.50 ± 12.50 μg/dish, respectively. Also, in assay [2] (setting [10]), the P worked out at 13.00 ± 4.69 μg/dish.

Take `COC(=O)c1ccc(/C=C2/C(=O)C=C[C@@]2(O)CCCCOc2ccccc2)cc1` [drawing 220]: the figures for the ALP in assay [2] (setting [8]) and in assay [2] (setting [11]) were 0.04 ± 0.01 OD415 /dish and 0.03 OD415 /dish, respectively. The figures for the Ca in assay [2] (setting [9]) and in assay [2] (setting [12]) were 312.17 ± 12.30 μg/dish and 328.00 ± 15.90 μg/dish, respectively. This compound yielded a P in assay [2] (setting [10]) of 170.33 ± 11.60 μg/dish.
